# “Also recorded” adds a separate entry of the source. Where two headings read alike, the source gives them in different places.
# Assays:
# [1] = test system: spontaneously hypertensive rats; experiment: Blood pressure lowering action in spontaneously hypertensive rats; type: in vivo; conditions: for blood pressure lowering action: abdominal cavity; for blood pressure lowering: in words
# Excerpt: The inventors also examined the blood pressure lowering action of the compounds (I), (II) and (III) by administering them in the abdominal cavity of spontaneously hypertensive rats.
# Solubility = type: physicochemical
# Excerpt: Now the extractive purification of the compounds (I), (II) and (III) will be described. […] These compounds are extracted from the culture filtrate under acidic conditions with butanol, butyl acetate, etc. or also from the fungus solid body (mycelium) with methanol, acetone, etc. The filtrate from the mycelial extract is concentrated by distillation under diminished pressure and the concentrated liquid, after having been adjusted to be acidic, is subjected to an extraction operation with butyl acetate or butanol. The thusly extracted liquid is mixed with the solution of butyl acetate or butanol separately extracted from the culture liquid, and then concentrated to dryness under diminished pressure.
# bacteria = experiment: Inhibiting action against growth of bacteria; type: cell-based; conditions: at 100 .nu./cc
# histidine decarboxylase = target: T1, histidine decarboxylase (Homo sapiens, UniProt P19113); experiment: Inhibition of histidine decarboxylase (formation of histamine-2-14C); type: biochemical; conditions: for inhibiting action against histidine decarboxylase: in words; for IC50: read-out: concentration for 50% inhibition ratio of histidine decarboxylase (converted)
# T1 sequence (P19113 1-662): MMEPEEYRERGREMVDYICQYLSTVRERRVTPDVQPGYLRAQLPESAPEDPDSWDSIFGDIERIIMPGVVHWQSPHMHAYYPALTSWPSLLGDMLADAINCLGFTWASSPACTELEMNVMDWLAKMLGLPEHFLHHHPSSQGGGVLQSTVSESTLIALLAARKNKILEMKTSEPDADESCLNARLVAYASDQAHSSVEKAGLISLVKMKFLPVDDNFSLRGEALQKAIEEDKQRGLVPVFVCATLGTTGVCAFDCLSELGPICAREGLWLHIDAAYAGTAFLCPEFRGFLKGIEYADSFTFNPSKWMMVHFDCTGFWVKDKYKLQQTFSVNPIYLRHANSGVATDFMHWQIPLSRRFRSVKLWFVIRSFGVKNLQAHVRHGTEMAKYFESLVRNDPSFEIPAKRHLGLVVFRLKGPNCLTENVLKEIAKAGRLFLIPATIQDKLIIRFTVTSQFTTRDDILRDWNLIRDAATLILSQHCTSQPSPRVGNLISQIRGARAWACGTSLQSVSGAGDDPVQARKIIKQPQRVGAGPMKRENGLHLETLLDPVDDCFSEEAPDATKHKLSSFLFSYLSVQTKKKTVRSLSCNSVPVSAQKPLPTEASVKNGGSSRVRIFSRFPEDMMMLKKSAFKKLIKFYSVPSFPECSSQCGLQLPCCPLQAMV
# Experimental: This inhibition is measured in the following manner:
# The reaction liquid is prepared from 2.5 × 10^-^4 mole of L-histidine-2-^14 C (1.0 × 10^5 cpm), 3.7 × 10^-^5 mole of pyridoxal phosphate, 0.1 cc of histidine decarboxylase (protein content, 1 mg/cc), 0.1 cc of 0.67 mole phosphate buffer solution (pH 6.8) and sample solution. To this mixture there is added distilled water until 1 cc total volume of reaction liquid is obtained. The thusly prepared reaction liquid is then allowed to react for 2 hours at 37° C. and the formed histamine-2-^14 C is adsorbed on ammonia type "Amberlite CG-50". After washing the "Amberlite CG-50" with water, the adsorbed histamine is eluted with 1 N aqueous ammonia and a quantity of elute is sampled to measure its radioactivity by use of a liquid scintillation counter. The thusly measured radioactivity tells the quantity of formed histamine, so that the inhibition against histidine decarboxylase can be determined.
# [2] = target: T2, catechol-O-methyl transferase (COMT) (Rattus norvegicus, UniProt P22734); experiment: Inhibition of catechol-O-methyl transferase (formation of tritium metanephrine); type: biochemical
# T2 sequence (P22734 1-221 isoform P22734-2): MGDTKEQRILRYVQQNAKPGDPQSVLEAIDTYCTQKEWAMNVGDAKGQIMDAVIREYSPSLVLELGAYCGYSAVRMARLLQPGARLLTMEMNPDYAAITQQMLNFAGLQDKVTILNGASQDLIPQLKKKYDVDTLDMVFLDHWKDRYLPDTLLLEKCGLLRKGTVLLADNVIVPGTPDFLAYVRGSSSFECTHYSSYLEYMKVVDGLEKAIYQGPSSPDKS
# Experimental: The compounds (I), (II) and (III) can be determined by measuring inhibition of COMT. The activity of COMT is measured in accordance with the method reported by B. Nikodejevic et al. (Ref. "The Journal of Pharmacology and Experimental Therapeutics", Vol. 174, pp. 83-93, by B. Nikodejevic et al., 1970). 0.5 cc total volume of reaction liquid is prepared from 0.125 cc of water, 0.05 cc of 0.1 mole phosphate buffer solution (pH 8.0), 0.1 cc of 0.1 mole magnesium chloride solution, 0.05 cc. of 0.05 mole adrenaline solution, 0.075 cc of 0.5 millimole tritium-8-adenosyl methionine aqueous solution (2.2 × 10^5 cpm), 0.05 cc of sample solution and 0.05 cc of enzyme solution. These solutions are mixed together at 0° C. and, after reacting for 20 minutes at 37° C., 1 cc of 0.5 mole boric acid buffer solution (pH 10.0) is added to stop the reaction. Then, tritium metanephrine (^3 H-metanephrine) wherein the meta-hydroxyl group has been methylated is extracted with a solvent mixture such as toluene-isoamyl alcohol (3:2). A quantity of solvent portion is then sampled and its radioactivity is measured by use of a liquid scintillation counter. The thusly obtained measurement of radioactivity tells the quantity of formed metanephrine, which in turn permits one to determine the inhibition.
# [3] = isolated compounds, read-out: concentration inhibiting the activity of COMT by 50% (converted)
# [4] = powders from silica gel fractions, Example 1, read-out: concentration showing 50% inhibition against COMT (converted)
SMILES,"blood pressure lowering action ([1]; 12.5 mg./kg., after 1 hour) [%]","blood pressure lowering action ([1]; 12.5 mg./kg., after 3 hours) [%]","blood pressure lowering action ([1]; 12.5 mg./kg., after 6 hours) [%]","blood pressure lowering action ([1]; 12.5 mg./kg., after 24 hours) [%]","blood pressure lowering action ([1]; 50 mg./kg., after 1 hour) [%]","blood pressure lowering action ([1]; 50 mg./kg., after 3 hours) [%]","blood pressure lowering action ([1]; 50 mg./kg., after 6 hours) [%]","blood pressure lowering action ([1]; 50 mg./kg., after 24 hours) [%]",blood pressure lowering [1],"solubility in alkaline water, methanol, ethanol and acetone (Solubility)","solubility in butanol, ethyl acetate and butyl acetate (Solubility)",inhibiting action against the growth of bacteria (bacteria),inhibiting action against histidine decarboxylase (histidine decarboxylase),IC50 (histidine decarboxylase; printed in parentheses) [µM],IC50 (histidine decarboxylase) [µM],"blood pressure lowering action ([1]; 50 mg./kg., after 48 hours) [%]","IC50 [2, 3] [µM]","IC50 [2, 4] [µM]",also measured
"COc1ccc(-c2coc3cc(O)c(OC)c(O)c3c2=O)cc1O [Compound (I), 3',5,7-trihydroxy-4',6-dimethoxy-isoflavone]",13.6,10.7,15.8,7.8,20.8,16.4,35.0,3.8,lowered the blood pressure,soluble,slightly soluble,no inhibiting action,inhibit; also recorded: inhibiting action,18,18.2,–,–,–,–
"COc1ccc(-c2coc3c(OC)c(O)cc(O)c3c2=O)cc1O [Compound (II), 3',5,7-trihydroxy-4',8-dimethoxy-isoflavone]",10.4,34.4,32.8,18.0,22.3,35.9,35.3,23.9,lowered the blood pressure,soluble,slightly soluble,no inhibiting action,inhibit; also recorded: inhibiting action,4.5,4.54,16.3,15.1,236,"blood pressure lowering action ([1]; 3.1 mg./kg., after 1 hour): 21.0%; blood pressure lowering action ([1]; 3.1 mg./kg., after 3 hours): 26.3%; blood pressure lowering action ([1]; 3.1 mg./kg., after 6 hours): 28.0%; blood pressure lowering action ([1]; 3.1 mg./kg., after 24 hours): 22.0%; blood pressure lowering action ([1]; 3.1 mg./kg., after 48 hours): 13.4%; blood pressure lowering action ([1]; 12.5 mg./kg., after 48 hours): 18.0%"
"COc1ccc(-c2coc3c(OC)c(O)c(OC)cc3c2=O)cc1O [Compound (III), 3',7-dihydroxy-4',6,8-trimethoxy-isoflavone]",–,–,–,–,11.9,13.0,17.3,7.0,lowered the blood pressure,soluble,slightly soluble,no inhibiting action,inhibiting action,–,–,3.0,0.581,14.5,"selectivity for COMT against the other enzymes ([2]; in words, other enzymes: tyrosine hydroxylase, dopamin-β-hydroxylase, DOPA decarboxylase, histidine decarboxylase): inhibiting action only against COMT and not against the other enzymes; inhibition at 100 µg/mL (histidine decarboxylase; 2 h, at 100 .nu./cc, read-out: inhibition ratio against histidine decarboxylase): ~31.9%"

# Reference: US3974184A, “Microbial production of certain isoflavones” (Zaidan Hojin Biseibutsu Kagaku Kenkyu Kai, priority 1973, dated 1976)
